Results taken from US6627743B1, “6-O-methylerythromycin A crystal form III” (Abbott Laboratories, priority 1999, dated 2003).

Assays:
[1] = Thermogravimetric analysis of the Form III solvate; type: physicochemical; conditions: 6 milligram sample, nitrogen purge, increase of 5° C. per minute (FIG. 4)
Description: Suitable temperatures for the conversion of the Form III solvate to the Form II crystal structure of 6-O-methylerythromycin A can vary depending on the conditions of the reaction. […] At atmospheric pressure, the preferred temperatures for the conversion of the Form III solvate to Form II are from about 80° C. to about 180° C. The more preferred temperatures for the conversion are from about 90° C. to about 105° C. Thermogravimetric analysis was conducted in the following manner. A T.A. Instruments Hi-Res thermogravimetric analyzer with Thermogravimetric Analyzer module 2950 was used along with DuPont 2100 TGA software version 5.1 A. The analysis parameters were: sample weight 6.3640 milligrams; heating rate was room temperature to 200° C. at 5° C./minute under a nitrogen purge.

[2] = Crystal form of the recrystallized solid after drying/heating, by powder X-ray diffraction; type: physicochemical
Description: Solids from the recrystallization were prepared according to the methods described above and analyzed under standard conditions with a calibrated Scintag X-ray diffraction system.
The wet solid was allowed to dry at room temperature. The air-dried sample was analyzed and the powder X-ray diffraction data was consistent with the powder X-ray diffraction pattern of a 6-O-methylerythromycin A Form III crystal structure. The air-dried sample was heated to a temperature between about 40° C. to about 45° C. in a calibrated vacuum oven for five days at atmospheric pressure.
A wet solid sample obtained from the recrystallization was heated in a calibrated convection oven to a temperature between about 100° C. and 105° C. […] The testing conditions and the corresponding result are summarized below in Table 1.
Crystallographic data was obtained by solvate single crystal analysis using a Scintag XDS-2000 powder X-ray diffraction system. Samples for X-ray diffraction analysis were prepared by spreading the sample powder (with no prior grinding required) in a thin layer on the sample holder and gently flattening the sample with a microscope slide. A Scintag X-ray Diffraction system was used with the following parameters: X-ray source is CuKα; range is 2-35°; scan rate is 1.00 degree/minute; step size is 0.0300 degree; and wavelength is 1.54060 angstroms.

Structure (SMILES): CC[C@H]1OC(=O)[C@H](C)[C@@H](OC2CC(C)(OC)C(O)C(C)O2)[C@H](C)[C@@H](OC2OC(C)CC(N(C)C)C2O)[C@@](C)(OC)C[C@@H](C)C(=O)[C@H](C)[C@@H](O)[C@]1(C)O (some centres unmarked) [Form III solvate, 6-O-methylerythromycin A acetonitrile solvate]
- Temperature of conversion of Form III solvate to Form II crystal structure [1]: about 175 °C

Structure (SMILES): CC[C@H]1OC(=O)[C@H](C)[C@@H](OC2CC(C)(OC)C(O)C(C)O2)[C@H](C)[C@@H](OC2OC(C)CC(N(C)C)C2O)[C@@](C)(OC)C[C@@H](C)C(=O)[C@H](C)[C@@H](O)[C@]1(C)O (some centres unmarked) [Sample 3, 6-O-methylerythromycin A acetonitrile solvate]
- Analytical Result (crystal form by powder X-ray diffraction) ([2]; heat 40° C.-45° C., 5 days): Form III spectra

Structure (SMILES): CC[C@H]1OC(=O)[C@H](C)[C@@H](OC2CC(C)(OC)C(O)C(C)O2)[C@H](C)[C@@H](OC2OC(C)CC(N(C)C)C2O)[C@@](C)(OC)C[C@@H](C)C(=O)[C@H](C)[C@@H](O)[C@]1(C)O (some centres unmarked) [Sample 1, 6-O-methylerythromycin A acetonitrile solvate]
- Analytical Result (crystal form by powder X-ray diffraction) ([2]; wet solid from acetonitrile recrystallization): Form III spectra

Structure (SMILES): CC[C@H]1OC(=O)[C@H](C)[C@@H](OC2CC(C)(OC)C(O)C(C)O2)[C@H](C)[C@@H](OC2OC(C)CC(N(C)C)C2O)[C@@](C)(OC)C[C@@H](C)C(=O)[C@H](C)[C@@H](O)[C@]1(C)O (some centres unmarked) [Sample 2, 6-O-methylerythromycin A acetonitrile solvate]
- Analytical Result (crystal form by powder X-ray diffraction) ([2]; air dried solid, room temperature): Form III spectra

Structure (SMILES): CC[C@H]1OC(=O)[C@H](C)[C@@H](OC2CC(C)(OC)C(O)C(C)O2)[C@H](C)[C@@H](OC2OC(C)CC(N(C)C)C2O)[C@@](C)(OC)C[C@@H](C)C(=O)[C@H](C)[C@@H](O)[C@]1(C)O (some centres unmarked) [Sample 4, 6-O-methylerythromycin A]
- Analytical Result (crystal form by powder X-ray diffraction) ([2]; heat to 100° C.-105° C., 24 hours): Form II spectra
